In ChEMBL document CHEMBL4219130, “Two new lathyrane-type diterpenoid glycosides with IL-6 production inhibitory activity from the roots of Euphorbia kansui” (Bioorg Med Chem Lett, 2018) one finds Activity and IC50 data, which are given here for 2 molecules.

Active and inactive are the calls of the source. The calls are words filed in the database; no cut-off is given here.

Common to all, as to format: functional, cell-based
Experiment [1] deals with HMC1. As to the kind of experiment: Antiinflammatory activity in human HMC1 cells assessed as reduction in PMA/ionophore A23187-induced TNFalpha mRNA expression at 0.8 to 20 uM pretreated for 30 mins followed by PMA/ionophore challenge measured after 24 hrs by real-time PCR analysis.
Experiment [2] relates to HMC1. The experiment is described as follows: Antiinflammatory activity in human HMC1 cells assessed as reduction in PMA/ionophore A23187-induced IL-6 production.
Experiment [3] has as its system HMC1. The experiment is described as follows: Antiinflammatory activity in human HMC1 cells assessed as reduction in PMA/ionophore A23187-induced IL-1beta mRNA expression at 0.8 to 20 uM pretreated for 30 mins followed by PMA/ionophore challenge measured after 24 hrs by real-time PCR analysis.
Experiment [4] relates to HMC1. The experiment is described as follows: Antiinflammatory activity in human HMC1 cells assessed as reduction in PMA/ionophore A23187-induced IL-6 mRNA expression at 0.8 to 20 uM pretreated for 30 mins followed by PMA/ionophore challenge measured after 24 hrs by real-time PCR analysis.

For `C/C1=C\C2=C(C[C@H](C)C2=O)[C@@H](O[C@@H]2O[C@H](CO)[C@@H](O)[C@H](O)[C@H]2O)[C@H](C)C[C@@H]2[C@H](C[C@H]1O)[C@@]2(C)CO`, the outcome in experiment [1], in experiment [3] and in experiment [4] was Active. Further, the IC50 in experiment [2] was found to be 2960 nM.

Take `C/C1=C\C2=C(C[C@H](C)C2=O)[C@@H](O)[C@H](C)C[C@@H]2[C@H](C[C@H]1O)[C@@]2(C)CO[C@@H]1O[C@H](CO)[C@@H](O)[C@H](O)[C@H]1O`: the IC50 in experiment [2] was 1940 nM.
